The source of these data is paper PMC7904790 (Nature Communications, 2021).

Like-named read-outs stand apart in the source and are kept apart here.

A short description of one data set: in vitro. On the set-up: CellTiter-Glo viability of parental Ba/F3 cells with IL-3 (counter-screen). Particulars: mouse, parental ba/f3 cells +il-3; with IL-3; read-out: IC50 parental Ba/F3 (+IL-3). The method, then:
To identify drugs that can overcome these mutations, we screened our focused 90-inhibitor library using Ba/F3 cells expressing EML4-ALK I1171N + F1174I and I1171N + L1198H. At a concentration of 50 nM, gilteritinib suppressed the viability of both wild-type (WT) and compound mutant Ba/F3 cells (Fig. 1a). Since gilteritinib has reported as multi-kinase inhibitor, we first evaluated whether the ALK inhibitory efficacy of gilteritinib is driven by on-target activity or not. As a result of western blot analysis, gilteritinib suppressed the autophosphorylation of ALK in EML4-ALK-expressing Ba/F3 cells (Fig. 1b and Supplementary Fig. 1). […] As well as Ba/F3 cell model, we verified the activity of gilteritinib to H3122 cell line that is EML4-ALK-positive NSCLC cells. […] Then, the inhibitory concentration of gilteritinib is matched between ALK phosphorylation and its downstream signals. […] Further, using the phosphoproteomics data, kinase substrate-enrichment analysis (KSEA) predicted activate kinase candidates as potential gilteritinib targets and identified ALK as the most likely regulated protein (Fig. 1e, Supplementary Figs. 3 and 4, and Supplementary Table 2).  Fig. 1 Identification of gilteritinib as an inhibitor of ALK-rearranged cancer cells. a Relative cell viability of parental (with IL-3), EML4-ALK wild-type (WT), EML4-ALK I1171N + F1174I, and EML4-ALK I1171N + L1198H Ba/F3 cells treated with 50 nM of the indicated inhibitors. Cell viability was analyzed using the CellTiter-Glo assay and calculated relative to the viability of dimethyl sulfoxide-treated Ba/F3 cells. b The suppression of phospho-ALK in I1171N + F1174I, I1171N + L1198H mutation-expressing Ba/F3 cells was evaluated using western blotting. Cells were treated with the indicated concentrations of gilteritinib for 3 h (n = 2). c The suppression of phospho-ALK and its downstream signals in H3122 parental cells and I1171N + F1174I compound mutation-expressing cells were evaluated using western blotting. […] N = 3 independent samples examined over three independent experiments and representative experiment data are presented as mean values ± SD. e Volcano plot displaying the −log10 (p-value) versus log2 (gilteritinib treatment/DMSO treatment) for all quantified phosphopeptides. The red diamond indicates phospho-ALK.

A further data set has as its system T1, EML4-ALK WT.
T1 construct: EML4-ALK fusion, wild-type kinase domain, expressed in Ba/F3 cells
The data set can be described thus: cells. Also on record: CellTiter-Glo viability of Ba/F3 cells dependent on EML4-ALK, without IL-3. Particulars: Ba/F3 EML4-ALK, 72 h. The method, then: To identify drugs that can overcome these mutations, we screened our focused 90-inhibitor library using Ba/F3 cells expressing EML4-ALK I1171N + F1174I and I1171N + L1198H. At a concentration of 50 nM, gilteritinib suppressed the viability of both wild-type (WT) and compound mutant Ba/F3 cells (Fig. 1a). Since gilteritinib has reported as multi-kinase inhibitor, we first evaluated whether the ALK inhibitory efficacy of gilteritinib is driven by on-target activity or not. As a result of western blot analysis, gilteritinib suppressed the autophosphorylation of ALK in EML4-ALK-expressing Ba/F3 cells (Fig. 1b and Supplementary Fig. 1). […] As well as Ba/F3 cell model, we verified the activity of gilteritinib to H3122 cell line that is EML4-ALK-positive NSCLC cells. […] Then, the inhibitory concentration of gilteritinib is matched between ALK phosphorylation and its downstream signals. […] Further, using the phosphoproteomics data, kinase substrate-enrichment analysis (KSEA) predicted activate kinase candidates as potential gilteritinib targets and identified ALK as the most likely regulated protein (Fig. 1e, Supplementary Figs. 3 and 4, and Supplementary Table 2). To establish Ba/F3 cells expression WT or mutant EML4-ALK, TPM3-NTRK1, and CD74-ROS1 fusion proteins, pLenti6.3 vectors containing the cDNA of these fusion oncogenes were transfected into 293FT cells using packaging plasmids (ViraPower) for lentivirus production. Ba/F3 cells were infected using lentivirus-containing medium supplemented with polybrene (8 μg/ml), and after 24 h of incubation, the infected cells were selected using 7 μg/ml blasticidin (Invitrogen) for 1 week. After selection, each EML4-ALK-, TPM3-NTRK1-, and CD74-ROS1-expressing cell line was cultured in D-10 without IL-3. […] To stablise H3122, JFCR-028-3, MCC-003 cells expression WT or mutant EML4-ALK, KRAS G12C, cells were infected using lentivirus-containing medium supplemented with polybrene (8 μg/ml). After 24 h of incubation, the infected cells were selected using 7 μg/ml blasticidin for H3122, JFCR028-3, and 10 μg/ml for MCC-003, respectively. To stablise H3122 cells expression AXL, pHAGE-AXL vector (purchased from addgene) was transfected into 293FT cells using packaging plasmids for lentivirus production. H3122 cells were infected using lentivirus-containing medium supplemented with polybrene (8 μg/ml), and after 24 h of incubation, EGFP-positive cells were sorted using FACSMelody (BD Bioscience, San Jose, CA, USA). To stablise NIH3T3 oncogene-expressing cells, cells were infected using lentivirus-containing medium supplemented with polybrene (8 μg/ml), and after 24 h of incubation, the infected cells were selected using 2 μg/ml blasticidin for 1 week.

Another data set deals with H2228. The data set can be described thus: cells. Also on record: CellTiter-Glo viability of fusion-positive human cancer cell lines. The following applies: Homo sapiens, NCI-H2228, 72 h.
Another data set concerns JFCR-018-1. The data set can be described thus: cells. On the set-up: CellTiter-Glo viability of fusion-positive human cancer cell lines. Particulars: 72 h.

With `C[C@H]1Oc2cc(cnc2N)-c2c(nn(C)c2C#N)CN(C)C(=O)c2ccc(F)cc21` [lorlatinib], the CC50 at 72 h in the data set “in vitro” came out at 8240 ± 2410 nM. The figures for the IC50 with EML4-ALK WT, in the data set with H2228 (read-out: Lorlatinib IC50) and in the data set on JFCR-018-1 (read-out: Lorlatinib IC50) were […], 0.46 ± 0.2 nM and 2.1 ± 0.33 nM, respectively.
Take `CN1CCN(c2ccc(C(=O)Nc3n[nH]c4ccc(Cc5cc(F)cc(F)c5)cc34)c(NC3CCOCC3)c2)CC1` [Entrectinib]: the CC50 at 72 h in the data set “in vitro” worked out at 481 ± 89 nM. Also, the IC50 (as a rule, the concentration that gives 50% inhibition) stood at 19 ± 10 nM in the data set on EML4-ALK WT, 19 ± 4.1 nM in the data set on H2228 (read-out: Entrectinib IC50) and 80 ± 18 nM in the data set with JFCR-018-1 (read-out: Entrectinib IC50).
`CCc1nc(C(N)=O)c(Nc2ccc(N3CCC(N4CCN(C)CC4)CC3)c(OC)c2)nc1NC1CCOCC1` [gilteritinib]: the CC50 at 72 h in the data set “in vitro” came out at 177 ± 4.9 nM. Besides, the figures for the IC50 in the data set on EML4-ALK WT, in the data set on H2228 (read-out: Gilteritinib IC50) and in the data set on JFCR-018-1 (read-out: Gilteritinib IC50) were 0.78 ± 0.27 nM, 0.52 ± 0.14 nM and 2.2 ± 0.25 nM, respectively.
